Data: patent US8785452B2, “Anti-infective compounds” (priority 2008, dated 2014)
In brackets after ≈: the same amount, converted by molar mass. Like-named read-outs stand apart in the source and are kept apart here.

What was measured:
[1] = tested on: M. tuberculosis H37Rv-GFP; test: microbe, parasite or virus in culture; format: cell-based, Mycobacterium tuberculosis; details: Mycobacterium tuberculosis, H37RV; for inhibition at 20 µM: Macrophage
Raw264.7 cells = test: Cell number (CellNb) from image analysis of the phenotypic cell-based assay; details: primary screen, 20 μM
[2] = confirmation, 20 uM, intracellular, read-out: QIM Confirm % Inhibition 20 uM
[3] = primary screen, 20 μM, intracellular, read-out: Primary QIM % Inhibition

Structure (SMILES) | inhibition at 20 µM [1, 2] [%] | inhibition at 20 µM [1, 3] [%] | also measured
CC(C)(C)c1cc(C(=O)N/N=C2\C(=O)N(Cc3ccccc3)c3ccccc32)[nH]n1 [IPK 000 138 12] | 105 | 96.8 | Primary QIM CellNb (Raw264.7 cells): 480.8
CNCCCN1c2ccccc2CCc2ccccc21 [IPK 000 224 59] | 86.2 | 72.9 | Primary QIM CellNb (Raw264.7 cells): 60.3
O=C(COc1ccc(F)cc1)Nc1nccs1 [IPK 000 247 44] | 97.1 | 89.1 | –
CC(C)(C)c1ccc(C(=O)NC2CCCCCCC2)cc1 [IPK 000 248 71] | 79 | 79.5 | –
CCCCS(=O)(=O)Nc1ccc(Cc2ccncc2)cc1 [IPK 000 249 12] | 53.2 | 23.6 | –
O=C1OCc2cc(NC(=O)C34CC5CC(CC(C5)C3)C4)ccc21 [IPK 000 249 14] | 68.6 | 45 | –
O=C(NC12CC3CC(CC(C3)C1)C2)N1CCN(c2ccccc2)CC1 [IPK 000 249 84] | 80.9 | 78.2 | –
O=C(Oc1cccc2cccnc12)c1ccccc1 [IPK 000 251 49] | – | – | inhibition at 20 µM ([1]; read-out: Primary QIM % Inhibition): 27%; inhibition at 20 µM ([1]; read-out: QIM Confirm % Inhibition 20 uM): 15%
CCOC(=O)C1=C(COc2ccc(F)cc2)NC(=O)NC1c1ccc2c(c1)OCO2 (stereo not drawn) [IPK 000 251 80] | 38.2 | 25.5 | –
Cc1noc(NS(=O)(=O)c2ccc(N)cc2)c1C [IPK 000 254 12] | 13.2 | 30.3 | –
CCOC(=O)c1sc(NC(=O)CCCc2ccccc2)nc1C [IPK 000 254 25] | 18.5 | 32.5 | –
CCOC(=O)c1sc(NC(=O)CCC2CCCCC2)nc1C [IPK 000 255 46] | 53.1 | 25 | –
CCc1cccc(NC(=O)c2cccs2)c1 [IPK 000 257 61] | 79.9 | 71.5 | –
O=[N+]([O-])c1ccc(CSc2nnnn2C2CCCCC2)cc1 [IPK 000 258 07] | 72.7 | 49.9 | –
O=C1Nc2ccccc2/C1=C(\c1ccccc1)c1nc2ccccc2[nH]1 [IPK 000 259 35] | 68.8 | 66 | –
CC(=O)COc1c([N+](=O)[O-])ccc(F)c1F [IPK 000 259 78] | 58.8 | 4.9 | –
CSc1ccc(/C=N/Nc2nc(-c3ccc(NC(=O)CCC(=O)O)cc3)cs2)cc1 [IPK 000 262 07] | 7.9 | 80.3 | –
O=C(CCC(=O)Nc1ccccc1)N/N=C/c1ccc([N+](=O)[O-])o1 [IPK 000 262 39] | 29.5 | 2.1 | –
CO[C@H]1/C=C/O[C@@]2(C)Oc3c(C)c(O)c4c(O)c(c(/C=N/N5CCN(C)CC5)c(O)c4c3C2=O)NC(=O)/C(C)=C\C=C\[C@H](C)[C@H](O)[C@@H](C)[C@@H](O)[C@@H](C)[C@H](OC(C)=O)[C@@H]1C [rifampin, reference compound] | – | – | MIC ([1]; 120 h, read-out: minimal inhibitory concentration (MIC)): 2.4 µg/mL (≈ 2.92 µM)
